Source: patent US8859549B2, “Potassium channel modulators” (AbbVie, Inc., priority 2011, dated 2014)

Biological target: T1, KCNQ 2/3 channels (Homo sapiens, UniProt O43525+O43526)
T1 construct: expressed in transfected cells; host or cells: HEK293
Test: KCNQ 2/3 channel activation, thallium flux FLIPR assay (BTC-AM dye)
Type: cell-based
Details: for Emax: HEK293, maximum response relative to the response of 10 μM retigabine (set at 100%), read-out: % MAX; for EC50: HEK293 cells stably expressing human KCNQ2 and KCNQ3 subunits, thallium-induced fluorescence, 4 min compound incubation
How it was run: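 HEK293 cells stably expressing human KCNQ2/KCNQ3 were loaded with BTC-AM (3 μg/mL, 2 h, RT) and preincubated with compound for 4 min in pH 7.3 gluconate buffer containing 0.1 mM ouabain. Flux was triggered by 6 mM TlNO3/10 mM K2SO4 and read for 3 min; EC50 came from summed responses over basal, with maximum relative to 10 μM retigabine (100%).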

CC(C)(C)NC(=O)c1nn(NC(=O)CC2CC3CCC2C3)c(=O)c2ccccc12 (racemic) [Example 99, (±)-3-{[(exo)-bicyclo[2.2.1]hept-2-ylacetyl]amino}-N-tert-butyl-4-oxo-3,4-dihydrophthalazine-1-carboxamide]
Emax (HEK293 KCNQ2/KCNQ3 cells): 177%
EC50: 206 nM

CCOC(=O)C(NC(=O)Cc1ccc(Cl)cc1)c1nn(NC(=O)Cc2ccc(Cl)cc2)c(=O)c2ccccc12 (centres unmarked) [Example 117, ethyl{[(4-chlorophenyl)acetyl]amino}(3-{[(4-chlorophenyl)acetyl]amino}-4-oxo-3,4-dihydrophthalazin-1-yl)acetate]
Emax (HEK293 KCNQ2/KCNQ3 cells): 26.2%

O=C(CC1CC2CCC1C2)Nn1nc(C2=CCOCC2)c2ccccc2c1=O (racemic) [Example 6, (±)-2-[(exo)-bicyclo[2.2.1]hept-2-yl]-N-[4-(3,6-dihydro-2H-pyran-4-yl)-1-oxophthalazin-2(1H)-yl]acetamide]
Emax (HEK293 KCNQ2/KCNQ3 cells): 140%
EC50: 515 nM

O=C(Cc1ccc(Cl)cc1)Nn1nc(CNC(=O)OC2CCCCC2)c2ccccc2c1=O [Example 128, cyclohexyl[(3-{[(4-chlorophenyl)acetyl]amino}-4-oxo-3,4-dihydrophthalazin-1-yl)methyl]carbamate]
Emax (HEK293 KCNQ2/KCNQ3 cells): 21.6%

CC(C)(C)OC(=O)N1CCN(C(=O)c2nn(NC(=O)CC3CC4CCC3C4)c(=O)c3ccccc23)CC1 (racemic) [Example 98, (±)-tert-butyl 4-[(3-{[(exo)-bicyclo[2.2.1]hept-2-ylacetyl]amino}-4-oxo-3,4-dihydrophthalazin-1-yl)carbonyl]piperazine-1-carboxylate]
Emax (HEK293 KCNQ2/KCNQ3 cells): 140%
EC50: 4970 nM

(1R,2S,5R)-5-methyl-2-(propan-2-yl)cyclohexyl[(3-{[(4-chlorophenyl)acetyl]amino}-4-oxo-3,4-dihydrophthalazin-1-yl)methyl]carbamate [Example 180]
EC50: 1610 nM
% MAX (maximum response relative to the response of 10 μM retigabine (set at 100%), HEK293 KCNQ2/KCNQ3 cells): 57.6%

O=C(CC12CC3CC(CC1C3)C2)Nn1nc(S(=O)(=O)c2ccccc2)c2ccccc2c1=O [Example 218, 2-(hexahydro-2,5-methanopentalen-3a(1H)-yl)-N-[1-oxo-4-(phenylsulfonyl)phthalazin-2(1H)-yl]acetamide]
Emax (HEK293 KCNQ2/KCNQ3 cells): 151%
EC50: 58.3 nM

COc1ccc(-c2nn(NC(=O)CC3CC4CCC3C4)c(=O)c3ccccc23)cn1 (racemic) [Example 26, (±)-2-[(exo)-bicyclo[2.2.1]hept-2-yl]-N-[4-(6-methoxypyridin-3-yl)-1-oxophthalazin-2(1H)-yl]acetamide]
Emax (HEK293 KCNQ2/KCNQ3 cells): 137%
EC50: 306 nM

Cc1ccc(S(=O)(=O)c2nn(NC(=O)Cc3ccc(Cl)cc3)c(=O)c3ccccc23)cc1 [Example 192, 2-(4-chlorophenyl)-N-{4-[(4-methylphenyl)sulfonyl]-1-oxophthalazin-2(1H)-yl}acetamide]
Emax (HEK293 KCNQ2/KCNQ3 cells): 103%
EC50: 116 nM

CC(C)(C)NC(=O)NCc1nn(NC(=O)Cc2ccc(Cl)cc2)c(=O)c2ccccc12 [Example 84, N-[4-{[(tert-butylcarbamoyl)amino]methyl}-1-oxophthalazin-2(1H)-yl]-2-(4-chlorophenyl)acetamide]
Emax (HEK293 KCNQ2/KCNQ3 cells): 40.8%

O=C(Cc1cc(F)cc(F)c1)Nn1nc(N2CCOCC2)c2ccccc2c1=O [Example 1, 2-(3,5-difluorophenyl)-N-[4-(morpholin-4-yl)-1-oxophthalazin-2(1H)-yl]acetamide]
Emax (HEK293 KCNQ2/KCNQ3 cells): 130%
EC50: 4460 nM

O=C(Cc1cc(F)cc(F)c1)Nn1nc(-c2ccccn2)c2ccccc2c1=O [Example 18, 2-(3,5-difluorophenyl)-N-[1-oxo-4-(pyridin-2-yl)phthalazin-2(1H)-yl]acetamide]
Emax (HEK293 KCNQ2/KCNQ3 cells): 112%
EC50: 2810 nM

O=C(CC1CCCO1)Nn1nc(-c2ccnc(Cl)c2)c2ccccc2c1=O (centres unmarked) [Example 73, N-[4-(2-chloropyridin-4-yl)-1-oxophthalazin-2(1H)-yl]-2-(tetrahydrofuran-2-yl)acetamide]
Emax (HEK293 KCNQ2/KCNQ3 cells): 172%
EC50: 8070 nM
